Data reported in US7538129B2, “Diazonamide A analog” (Board of Regents, The University of Texas System, priority 2005, dated 2009).
Several values for one entry are separate records, joined by “and”; a condition that tells them apart may be missing. Equal values may be shown once. Entries after “also recorded” stand apart in the source; their conditions may differ.

Experiments:
[1] = tested on: MDA-MB-231; experiment: growth inhibition (GI50) of tumor cell lines; assay type: cell-based; settings: MDA-MB-231, FIG. 1
Experimental: (§1) A number of tumor cell lines representing breast, lung, colon, ovarian and prostate cancer as well as melanoma were assayed under standard growth conditions in presence of varying amounts of diazonamide A, a hydroxylated form of Compound J, Compound J, paclitaxel and vinblastine. The results are graphed as the concentration that diminishes growth by a factor of two (GI50) in FIG. 1.

[2] = tested on: melanoma tumor cell lines; experiment: growth inhibition (GI50) of tumor cell lines; assay type: cell-based; settings: FIG. 1
Experimental: as §1

[3] = tested on: MDA-MB-435 (breast) xenografts; experiment: growth inhibition of MDA-MB-435 xenografts; assay type: in vivo, mice; settings: 20 mg/kg, IP
[4] = tested on: PTX10 ovarian tumor cell line; experiment: survival of PTX10 ovarian tumor cell line; assay type: cell-based; settings: PTX10, FIG. 2
From the text: Additional experiments testing the effect of Compound J and paclitaxel on the survival of PTX10ovarian tumor cell line are shown in FIG. 2. […] In FIG. 2, the circles represent Compound J and the diamonds represent paclitaxel.

[5] = tested on: PC-3 xenografts; experiment: growth inhibition of PC-3 xenografts; assay type: in vivo, mice; settings: 20 mg/kg; for inhibition of growth of PC-3 xenografts: FIG. 4B; for % Max T/C / Log10 Tumor Cell Kill: PC3 (prostate), IV
Experimental: In FIG. 4B, the squares are the control, the dark circles are the data-points for Compound J and the light diamonds are data-points for paclitaxel.
The details of the protocol for Examples 19 and 20 are as follows:
• PC3 prostrate tumor cells and HCT116 colon tumor cells (acquired from the tumor repository Division of Cancer Treatment and Diagnosis (DCTD) of the NCI • Complete RPMI Media • RPMI (Cat# 11875-085, Invitrogen) • 10% Heat-inactivated (30′ 56° C.) Fetal Bovine Serum (Cat# 100-106, Gemini Bio-Products • 2 mM L-glutamine (Cat# 25030-081, Invitrogen) • 0.1 mM MEM Non-Essential Amino Acids Solution (Cat#11140-050, Invitrogen) • 10 U/ml Penicillin/10 μg/ml Streptomycin (Cat#15140-122, Invitrogen) • 1 mM Sodium Pyruvate (Cat#l 1360-070) • Trypsin-EDTA (Cat#25300-054, Invitrogen) • Ca^2+/Mg^2+-free Phosphate Buffered Saline, 5% dextrose in water • Cell Culture Dish 150 mm×25 mm (Cat# 430599, Coming, Inc.) • 10 and 25 ml pipets, standard pipet-aid, p200 and p1000 pipette tips and standard pipetmen • Athymic NCr-nu/nu nude mice at 6-12 weeks of age, either sex (Strain code: 01B74, NCI Frederick Animal Production Program—suppliers include Charles River Labs and Taconic Farms). Female mice of approximately 7 weeks of age were utilized for existing experiments. • Standard 1 cc tuberculin syringe, 30G½ and 25G⅝ needles (Becton Dickinson) • Falcon 5 ml tubes (Cat#352054) • 50 and 15 ml disposable plastic conical tubes (Falcon or similar vendor) • Trypan Blue Solution (0.4%) (Cat#T8154, Sigma) • Hausser phase contrast hemacytometer (Cat# 02-671-54, Fisher) • Ice bucket • Balance for weighing mice (accurate to 0.2 g) • Vernier calipers • Vivarium facility free from known pathogens (nude mice should be housed in isolation from conventional mice if possible—separate rooms or micro-isolator cages equipped with individual air flow; all animal housing, bedding, water should be autoclaved prior to use; standard irradiated mouse chow should be used; animals should be changed out of cages within laminar flow hood; investigators handling mice should be suitably garbed—disposable gown, bonnet, booties, gloves, mask) • AB-5 (Compound J) compound • Ethyl alcohol, 200 proof (Aaper, MFD 041205) • Cremaphor (Cat# C5135, Sigma) • Paclitaxel (Cat#ANP0010, Polymed Therapeutics) Procedure: • 1) Rapidly thaw PC3 or HCT116 cells (if necessary) in 37° C. water bath. Transfer contents to 9ml complete RPMI media. Spin 5′ at 1200 rpm (240 Xg). Discard media and resuspend pellet in 8 ml complete RPMI media. Plate in 100 mm×25 mm cell culture dish in 5% CO2, 37° C. humidified incubator. • 2) Allow to grow for 5-10 days, splitting (aspirate media, wash with 3-5 ml PBS, add 1 ml trypsin-EDTA, incubate 3-5′ at 37° C., add media to desired volume and transfer to multiple plates) 1:8 to 1:10 every 3-4 days as necessary to allow cells to enter phase of logarithmic growth. • 3) When cells are growing well, begin to expand to 150 mm×25 mm dishes. We use 20 ml of media in a 150 mm dish and use 2 ml of trypsin for splitting. When nearly confluent, there should be 2×10^7 cells/150 mm dish. • 4) Plan ahead to time arrival of nu/nu mice such that they can acclimate to animal facility for 1 week prior to injection of tumor cells. […] Plan to inject 10 million cells/mouse and allow for loss of cells/volume during injection process. That is, if 30 mice are to be injected, plan to harvest cells sufficient for at least 35 injections—35×10 million cells=3.5×10^8 cells. In the existing HCT116 experiment, 7.5×10^6 cells were injected per mouse. Five mice per group were utilized for AB-5 treatment and four mice per group were utilized for the control and paclitaxel treatments. In the existing PC3 experiment, 10^7 cells were injected. Six mice per group were utilized for the control treatment and five mice per group were utilized for the AB-5 and paclitaxel treatments. […]

[6] = pharmacokinetics, intratumoral concentration after intravenous injection; assay type: in vivo; settings: mice with MDA-MB-435 xenograft tumors
Experimental: Compound J was injected intravenously into mice containing xenograft tumors grown from MDA-MB-435 breast cancer cells. The intratumoral concentration of Compound J was measured as a function of time.

[7] = tested on: SKMEL-2; experiment: growth inhibition (GI50) of tumor cell lines; assay type: cell-based; settings: SKMEL-2, FIG. 1
Experimental: as §1

[8] = tested on: ovarian cell line IGR-OV1; experiment: growth inhibition (GI50) of tumor cell lines; assay type: cell-based; settings: IGR-OV1, FIG. 1
Experimental: as §1

SMILES: CC(C)[C@H](O)C(=O)N[C@H]1Cc2ccc3c(c2)[C@]24C5=C(N=C(O5)[C@H](C(C)C)NC1=O)c1ncc(o1)-c1c[nH]c5cccc(c15)-c1cccc2c1NC4O3 (stereo in doubt) [Compound J]
- GI50 (concentration that diminishes growth by a factor of two) [1]: more effective than the remaining drugs
- GI50 (concentration that diminishes growth by a factor of two) [2]: less effective than the remaining drugs
- #Tumor Free (day) [3]: 0/6
- % Max T/C [3]: 6.8% and 3.1%
- percentage of cells surviving (survival fraction against concentration) [4]: more effective than paclitaxel
- inhibition of growth of PC-3 xenografts [5]: comparable to paclitaxel; also recorded: significantly inhibited tumor growth
- % Max T/C [5]: 0.3%
- Log10 Tumor Cell Kill [5]: 3.4
- area under the curve [6]: 3010224 ng·min/mL
- half-life ([6]; mouse, tumor, read-out: terminal half-life): 4.96 h
- Vd ([6]; mouse, tumor, read-out: volume of distribution): 2.9 L/kg

SMILES: CC(=O)O[C@H]1C(=O)[C@@]2(C)[C@H]([C@H](OC(=O)c3ccccc3)[C@]3(O)C[C@H](OC(=O)[C@H](O)[C@@H](NC(=O)c4ccccc4)c4ccccc4)C(C)=C1C3(C)C)[C@]1(OC(C)=O)CO[C@@H]1C[C@@H]2O [paclitaxel, reference compound]
- GI50 (concentration that diminishes growth by a factor of two) [7]: significantly less effective than the remaining four drugs
- GI50 (concentration that diminishes growth by a factor of two) [8]: significantly less effective than the remaining four drugs
- inhibition of growth of PC-3 xenografts [5]: significantly inhibited tumor growth
- % Max T/C [5]: 0%
- Log10 Tumor Cell Kill [5]: 3.4
